Source: ChEMBL document CHEMBL4699602, “Stapled and Xenopus Glucagon-Like Peptide 1 (GLP-1)-Based Dual GLP-1/Gastrin Receptor Agonists with Improved Metabolic Benefits in Rodent Models of Obesity and Diabetes” (J Med Chem, 2020)
Where a SMILES comes first, the peptide text is derived from it.

Molecular target: Glucagon-like peptide 1 receptor (Homo sapiens, UniProt P43220)
Experiment: Agonist activity at human GLP-1R expressed in HEK293 cells assessed as stimulation of cAMP accumulation incubated for 20 mins
Format: functional, cell-based

Chain of Glucagon-like peptide 1 receptor (P43220 whole entry): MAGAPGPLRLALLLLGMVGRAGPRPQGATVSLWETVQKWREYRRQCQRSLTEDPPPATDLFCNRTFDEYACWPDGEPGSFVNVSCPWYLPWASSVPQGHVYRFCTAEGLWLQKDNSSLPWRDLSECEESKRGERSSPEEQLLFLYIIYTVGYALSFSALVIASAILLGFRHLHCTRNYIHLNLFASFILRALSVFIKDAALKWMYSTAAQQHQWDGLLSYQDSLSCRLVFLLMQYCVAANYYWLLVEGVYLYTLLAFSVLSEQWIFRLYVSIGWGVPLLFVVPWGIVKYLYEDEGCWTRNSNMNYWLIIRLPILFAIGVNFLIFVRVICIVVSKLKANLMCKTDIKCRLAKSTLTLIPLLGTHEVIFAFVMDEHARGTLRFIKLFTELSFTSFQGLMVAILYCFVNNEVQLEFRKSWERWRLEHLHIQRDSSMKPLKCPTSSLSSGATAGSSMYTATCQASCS

Row | SMILES | EC50 [nM]
1 | CC[C@H](C)[C@H](NC(=O)[C@H](CC(C)C)NC(=O)[C@H](Cc1c[nH]c2ccccc12)NC(=O)[C@H](CS)NC(=O)[C@@H](NC(=O)[C@H](Cc1ccccc1)NC(=O)[C@H](CCC(=O)O)NC(=O)[C@H](CCCCN)NC(=O)[C@H](C)NC(=O)[C@H](C)NC(=O)[C@H](CS)NC(=O)[C@H](CCC(=O)O)NC(=O)[C@H](CCC(=O)O)NC(=O)[C@H](CC(C)C)NC(=O)[C@H](Cc1ccc(O)cc1)NC(=O)[C@H](CCC(=O)O)NC(=O)[C@@H](NC(=O)[C@@H](NC(=O)[C@H](CC(=O)O)NC(=O)[C@H](CC(N)=O)NC(=O)[C@@H](NC(=O)[C@H](Cc1ccc(O)cc1)NC(=O)[C@@H](NC(=O)CNC(=O)[C@H](CCC(=O)O)NC(=O)C(C)(C)NC(=O)[C@@H](N)Cc1c[nH]cn1)[C@@H](C)O)[C@@H](C)O)C(C)C)[C@@H](C)O)[C@@H](C)CC)C(=O)N[C@@H](CCCCN)C(=O)NCC(=O)N[C@@H](CCCCN)C(N)=O (HELM PEPTIDE1{H.[Aib].E.G.T.Y.T.N.D.V.T.E.Y.L.E.E.C.A.A.K.E.F.I.C.W.L.I.K.G.K.[am]}$$$$V2.0) | 0.16
2 | CC[C@H](C)[C@H](NC(=O)[C@H](Cc1ccccc1)NC(=O)[C@H](CCC(=O)O)NC(=O)[C@H](CS)NC(=O)[C@H](C)NC(=O)[C@H](C)NC(=O)[C@H](CCC(=O)O)NC(=O)[C@H](CCC(=O)O)NC(=O)[C@H](CCC(=O)O)NC(=O)[C@H](CC(C)C)NC(=O)[C@H](Cc1ccc(O)cc1)NC(=O)[C@H](CCC(=O)O)NC(=O)[C@@H](NC(=O)[C@@H](NC(=O)[C@H](CC(=O)O)NC(=O)[C@H](CC(N)=O)NC(=O)[C@@H](NC(=O)[C@H](Cc1ccc(O)cc1)NC(=O)[C@@H](NC(=O)CNC(=O)[C@H](CCC(=O)O)NC(=O)C(C)(C)NC(=O)[C@@H](N)Cc1c[nH]cn1)[C@@H](C)O)[C@@H](C)O)C(C)C)[C@@H](C)O)C(=O)N[C@@H](CCC(=O)O)C(=O)N[C@@H](Cc1c[nH]c2ccccc12)C(=O)N[C@@H](CC(C)C)C(=O)N[C@@H](CS)C(=O)N[C@@H](CCCCN)C(=O)NCC(=O)N[C@@H](CCCCN)C(=O)N1CCC[C@H]1C(=O)N[C@@H](CO)C(=O)N[C@@H](CO)C(=O)NCC(=O)N[C@@H](C)C(=O)N1CCC[C@H]1C(=O)N1CCC[C@H]1C(=O)N1CCC[C@H]1C(=O)N[C@@H](CO)C(N)=O (HELM PEPTIDE1{H.[Aib].E.G.T.Y.T.N.D.V.T.E.Y.L.E.E.E.A.A.C.E.F.I.E.W.L.C.K.G.K.P.S.S.G.A.P.P.P.S.[am]}$$$$V2.0) | 0.26
3 | CC[C@H](C)[C@H](NC(=O)[C@H](Cc1ccccc1)NC(=O)[C@H](CCC(=O)O)NC(=O)[C@H](CS)NC(=O)[C@H](C)NC(=O)[C@H](C)NC(=O)[C@H](CCC(=O)O)NC(=O)[C@H](CCC(=O)O)NC(=O)[C@H](CCC(=O)O)NC(=O)[C@H](CC(C)C)NC(=O)[C@H](Cc1ccc(O)cc1)NC(=O)[C@H](CCC(=O)O)NC(=O)[C@@H](NC(=O)[C@@H](NC(=O)[C@H](CC(=O)O)NC(=O)[C@H](CC(N)=O)NC(=O)[C@@H](NC(=O)[C@H](Cc1ccc(O)cc1)NC(=O)[C@@H](NC(=O)CNC(=O)[C@H](CCC(=O)O)NC(=O)C(C)(C)NC(=O)[C@@H](N)Cc1c[nH]cn1)[C@@H](C)O)[C@@H](C)O)C(C)C)[C@@H](C)O)C(=O)N[C@@H](CCC(=O)O)C(=O)N[C@@H](Cc1c[nH]c2ccccc12)C(=O)N[C@@H](CC(C)C)C(=O)N[C@@H](CS)C(=O)N[C@@H](CCCCN)C(=O)NCC(=O)N[C@@H](CCCCN)C(N)=O (HELM PEPTIDE1{H.[Aib].E.G.T.Y.T.N.D.V.T.E.Y.L.E.E.E.A.A.C.E.F.I.E.W.L.C.K.G.K.[am]}$$$$V2.0) | 0.76
4 | CC[C@H](C)[C@H](NC(=O)[C@H](CS)NC(=O)[C@H](CCC(=O)O)NC(=O)[C@H](CCCCN)NC(=O)[C@H](C)NC(=O)[C@H](C)NC(=O)[C@H](CCC(=O)O)NC(=O)[C@H](CCC(=O)O)NC(=O)[C@H](CCC(=O)O)NC(=O)[C@H](CC(C)C)NC(=O)[C@H](Cc1ccc(O)cc1)NC(=O)[C@H](CCC(=O)O)NC(=O)[C@@H](NC(=O)[C@@H](NC(=O)[C@H](CC(=O)O)NC(=O)[C@H](CC(N)=O)NC(=O)[C@@H](NC(=O)[C@H](Cc1ccc(O)cc1)NC(=O)[C@@H](NC(=O)CNC(=O)[C@H](CCC(=O)O)NC(=O)C(C)(C)NC(=O)[C@@H](N)Cc1c[nH]cn1)[C@@H](C)O)[C@@H](C)O)C(C)C)[C@@H](C)O)C(=O)N[C@@H](CCC(=O)O)C(=O)N[C@@H](Cc1c[nH]c2ccccc12)C(=O)N[C@@H](CC(C)C)C(=O)N[C@H](C(=O)N[C@@H](CCCCN)C(=O)N[C@@H](CS)C(=O)N[C@@H](CCCCN)C(=O)N1CCC[C@H]1C(=O)N[C@@H](CO)C(=O)N[C@@H](CO)C(=O)NCC(=O)N[C@@H](C)C(=O)N1CCC[C@H]1C(=O)N1CCC[C@H]1C(=O)N1CCC[C@H]1C(=O)N[C@@H](CO)C(N)=O)[C@@H](C)CC (HELM PEPTIDE1{H.[Aib].E.G.T.Y.T.N.D.V.T.E.Y.L.E.E.E.A.A.K.E.C.I.E.W.L.I.K.C.K.P.S.S.G.A.P.P.P.S.[am]}$$$$V2.0) | 0.16
5 | CC[C@H](C)[C@H](NC(=O)[C@H](CC(C)C)NC(=O)[C@H](Cc1c[nH]c2ccccc12)NC(=O)[C@H](CCC(=O)O)NC(=O)[C@@H](NC(=O)[C@H](CS)NC(=O)[C@H](CCC(=O)O)NC(=O)[C@H](CCCCN)NC(=O)[C@H](C)NC(=O)[C@H](C)NC(=O)[C@H](CCC(=O)O)NC(=O)[C@H](CCC(=O)O)NC(=O)[C@H](CCC(=O)O)NC(=O)[C@H](CC(C)C)NC(=O)[C@H](Cc1ccc(O)cc1)NC(=O)[C@H](CCC(=O)O)NC(=O)[C@@H](NC(=O)[C@@H](NC(=O)[C@H](CC(=O)O)NC(=O)[C@H](CC(N)=O)NC(=O)[C@@H](NC(=O)[C@H](Cc1ccc(O)cc1)NC(=O)[C@@H](NC(=O)CNC(=O)[C@H](CCC(=O)O)NC(=O)C(C)(C)NC(=O)[C@@H](N)Cc1c[nH]cn1)[C@@H](C)O)[C@@H](C)O)C(C)C)[C@@H](C)O)[C@@H](C)CC)C(=O)N[C@@H](CCCCN)C(=O)N[C@@H](CS)C(=O)N[C@@H](CCCCN)C(N)=O (HELM PEPTIDE1{H.[Aib].E.G.T.Y.T.N.D.V.T.E.Y.L.E.E.E.A.A.K.E.C.I.E.W.L.I.K.C.K.[am]}$$$$V2.0) | 0.45
6 | CC[C@H](C)[C@H](NC(=O)[C@H](CC(C)C)NC(=O)[C@H](Cc1c[nH]c2ccccc12)NC(=O)[C@H](CCC(=O)O)NC(=O)[C@H](CS)NC(=O)[C@H](Cc1ccccc1)NC(=O)[C@H](CCC(=O)O)NC(=O)[C@H](CCCCN)NC(=O)[C@H](C)NC(=O)[C@H](C)NC(=O)[C@H](CCC(=O)O)NC(=O)[C@H](CCC(=O)O)NC(=O)[C@H](CCC(=O)O)NC(=O)[C@H](CC(C)C)NC(=O)[C@H](Cc1ccc(O)cc1)NC(=O)[C@H](CCC(=O)O)NC(=O)[C@@H](NC(=O)[C@@H](NC(=O)[C@H](CC(=O)O)NC(=O)[C@H](CC(N)=O)NC(=O)[C@@H](NC(=O)[C@H](Cc1ccc(O)cc1)NC(=O)[C@@H](NC(=O)CNC(=O)[C@H](CCC(=O)O)NC(=O)C(C)(C)NC(=O)[C@@H](N)Cc1c[nH]cn1)[C@@H](C)O)[C@@H](C)O)C(C)C)[C@@H](C)O)C(=O)N[C@@H](CCCCN)C(=O)NCC(=O)N[C@@H](CS)C(=O)N1CCC[C@H]1C(=O)N[C@@H](CO)C(=O)N[C@@H](CO)C(=O)NCC(=O)N[C@@H](C)C(=O)N1CCC[C@H]1C(=O)N1CCC[C@H]1C(=O)N1CCC[C@H]1C(=O)N[C@@H](CO)C(N)=O (HELM PEPTIDE1{H.[Aib].E.G.T.Y.T.N.D.V.T.E.Y.L.E.E.E.A.A.K.E.F.C.E.W.L.I.K.G.C.P.S.S.G.A.P.P.P.S.[am]}$$$$V2.0) | 0.21
7 | CC[C@H](C)[C@H](NC(=O)[C@H](CC(C)C)NC(=O)[C@H](Cc1c[nH]c2ccccc12)NC(=O)[C@H](CCC(=O)O)NC(=O)[C@H](CS)NC(=O)[C@H](Cc1ccccc1)NC(=O)[C@H](CCC(=O)O)NC(=O)[C@H](CCCCN)NC(=O)[C@H](C)NC(=O)[C@H](C)NC(=O)[C@H](CCC(=O)O)NC(=O)[C@H](CCC(=O)O)NC(=O)[C@H](CCC(=O)O)NC(=O)[C@H](CC(C)C)NC(=O)[C@H](Cc1ccc(O)cc1)NC(=O)[C@H](CCC(=O)O)NC(=O)[C@@H](NC(=O)[C@@H](NC(=O)[C@H](CC(=O)O)NC(=O)[C@H](CC(N)=O)NC(=O)[C@@H](NC(=O)[C@H](Cc1ccc(O)cc1)NC(=O)[C@@H](NC(=O)CNC(=O)[C@H](CCC(=O)O)NC(=O)C(C)(C)NC(=O)[C@@H](N)Cc1c[nH]cn1)[C@@H](C)O)[C@@H](C)O)C(C)C)[C@@H](C)O)C(=O)N[C@@H](CCCCN)C(=O)NCC(=O)N[C@@H](CS)C(N)=O (HELM PEPTIDE1{H.[Aib].E.G.T.Y.T.N.D.V.T.E.Y.L.E.E.E.A.A.K.E.F.C.E.W.L.I.K.G.C.[am]}$$$$V2.0) | 0.62
8 | CC[C@H](C)[C@H](NC(=O)[C@H](CS)NC(=O)[C@H](Cc1c[nH]c2ccccc12)NC(=O)[C@H](CCC(=O)O)NC(=O)[C@@H](NC(=O)[C@H](Cc1ccccc1)NC(=O)[C@H](CCC(=O)O)NC(=O)[C@H](CCCCN)NC(=O)[C@H](CS)NC(=O)[C@H](C)NC(=O)[C@H](CCC(=O)O)NC(=O)[C@H](CCC(=O)O)NC(=O)[C@H](CCC(=O)O)NC(=O)[C@H](CC(C)C)NC(=O)[C@H](Cc1ccc(O)cc1)NC(=O)[C@H](CCC(=O)O)NC(=O)[C@@H](NC(=O)[C@@H](NC(=O)[C@H](CC(=O)O)NC(=O)[C@H](CC(N)=O)NC(=O)[C@@H](NC(=O)[C@H](Cc1ccc(O)cc1)NC(=O)[C@@H](NC(=O)CNC(=O)[C@H](CCC(=O)O)NC(=O)C(C)(C)NC(=O)[C@@H](N)Cc1c[nH]cn1)[C@@H](C)O)[C@@H](C)O)C(C)C)[C@@H](C)O)[C@@H](C)CC)C(=O)N[C@@H](CCCCN)C(=O)NCC(=O)N[C@@H](CCCCN)C(=O)N1CCC[C@H]1C(=O)N[C@@H](CO)C(=O)N[C@@H](CO)C(=O)NCC(=O)N[C@@H](C)C(=O)N1CCC[C@H]1C(=O)N1CCC[C@H]1C(=O)N1CCC[C@H]1C(=O)N[C@@H](CO)C(N)=O (HELM PEPTIDE1{H.[Aib].E.G.T.Y.T.N.D.V.T.E.Y.L.E.E.E.A.C.K.E.F.I.E.W.C.I.K.G.K.P.S.S.G.A.P.P.P.S.[am]}$$$$V2.0) | 0.24
